Test results as given in publication PMC3128934, “Substrate Pathways and Mechanisms of Inhibition in the Sulfur Oxygenase Reductase of Acidianus Ambivalens” (Frontiers in Microbiology, 2011).

Tests used:
[1] = system: sulfur oxygenase reductase (SOR); parameters: method as in Kletzin, [1989]; settings: ref Kletzin, [1989], cited from earlier work; for residual activity for the oxidized reaction products: 0.1 mM inhibitor; for oxygenase activity remaining: 1 mM inhibitor
[2] = molecular target: sulfur oxygenase reductase (SOR) wild type (Acidianus ambivalens, UniProt P29082); assay: biochemical; settings: Ki-value (half-maximal inhibitory concentration), wild type enzyme, 30 min preincubation at room temperature, reaction at 85°C
Sequence of sulfur oxygenase reductase (SOR) wild type (P29082 whole entry): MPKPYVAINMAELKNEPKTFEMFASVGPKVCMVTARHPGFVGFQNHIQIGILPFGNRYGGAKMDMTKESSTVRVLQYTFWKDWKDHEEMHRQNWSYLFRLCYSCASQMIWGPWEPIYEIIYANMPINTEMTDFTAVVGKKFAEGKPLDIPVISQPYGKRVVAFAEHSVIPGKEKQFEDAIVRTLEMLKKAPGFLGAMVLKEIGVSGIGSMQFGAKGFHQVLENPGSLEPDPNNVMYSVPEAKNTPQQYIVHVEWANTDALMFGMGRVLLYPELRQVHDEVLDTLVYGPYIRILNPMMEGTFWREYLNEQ
Description: (§1) Specific activities of the wild type and mutant proteins were determined by incubation of 2–5 μg of purified enzyme/ml of Tris–HCl buffer pH 7.2 containing 2% sulfur and 0.1% of Tween 20 as described previously (Kletzin, [1989]; Urich et al., [2004], [2005b]). Samples were taken at appropriate time points (usually after 0, 2, 4, 6, 8, and 10 min) and the concentration of the products was determined colorimetrically. Specific activities were calculated from the linear increase of product concentrations (Kletzin, [1989]). At least two activity measurements were performed for each mutant using independently purified protein preparations (see below, Table 2). Iron quantification was performed with pure protein preparations using the 2,4,6-tripyridyl-1,3,5-triazine method (TPTZ; Fischer and Price, [1964]). Protein concentrations were determined by the Coomassie Blue method (Bradford, [1976]) or using the BCA Protein Assay Kit (Novagen/Merck, Darmstadt, Germany) according to the manufacturer's instructions. Samples of purified proteins were separated by SDS-PAGE (Schägger and von Jagow, [1987]) and visualized with colloidal Coomassie Blue staining (Roti-Blue; Roth, Karlsruhe, Germany).
(§2) Zinc inhibition assays of the wild type and mutant proteins were performed by addition of a freshly prepared zinc chloride solution to the reaction buffer in concentrations ranging from 0.01 to 1 mM (Kletzin, [1989]). After addition of the enzyme, the mixture was incubated for 30 min at room temperature before starting the reaction by heating to 85°C and measurement of the specific activities. A zinc/buffer mixture without protein was used as a negative control.

[3] = molecular target: sulfur oxygenase reductase (SOR) H166A mutant (Acidianus ambivalens, UniProt P29082, H166A); assay: biochemical; settings: for Ki: Ki-value (half-maximal inhibitory concentration), H166A mutant
Sequence of sulfur oxygenase reductase (SOR) H166A mutant (P29082 whole entry H166A): as the sequence (P29082 whole entry) above, with H166A counted along it
Description: as §1, §2

[4] = molecular target: sulfur oxygenase reductase (SOR) H277A mutant (Acidianus ambivalens, UniProt P29082, H277A); assay: biochemical; settings: for Ki: Ki-value (half-maximal inhibitory concentration), H277A mutant
Sequence of sulfur oxygenase reductase (SOR) H277A mutant (P29082 whole entry H277A): as the sequence (P29082 whole entry) above, with H277A counted along it
Description: as §1, §2

[Hg+2] [Hg^2+]
residual activity for the oxidized reaction products [1]: 37%

NC(=O)CI [IAA, iodoacetamide]
oxygenase activity remaining [1]: 27%

CCN1C(=O)C=CC1=O [NEM, N-ethylmaleimide]
oxygenase activity remaining [1]: 47%

[Zn+2] [zinc chloride]
residual activity for the oxidized reaction products [1]: 74% | Ki ([2]; oxygenase activity): 45 µM | Ki ([2]; reductase activity): 39 µM | Increase of Ki-value compared to the wild type ([3]; H166A mutant vs wild type): two- to threefold | Ki ([3]; oxygenase activity): 121 µM | Ki ([3]; reductase activity): 150 µM | Increase of Ki-value compared to the wild type ([4]; H277A mutant vs wild type): two- to threefold | Ki ([4]; oxygenase activity): 157 µM | Ki ([4]; reductase activity): 144 µM
